Test system: Wnt gene family (Wnt10b, Wnt5a, and Wnt1)
Assay: Transcriptome sequencing and qRT-PCR of brain samples of HFD-induced AD mice
Assay type: in vivo
Conditions: GSEA-GO, qRT-PCR confirmed Wnt10b and Wnt5a
Description: Total RNA was extracted and quantified from 50 mg of the cerebral cortex using TRIzol reagent (Invitrogen, Carlsbad, CA, USA) and NanoDrop (Thermo Fisher Scientific, Waltham, MA, USA), respectively. Subsequently, 2.5 µg of RNA from each sample was reverse-transcribed using a HiFi-MMLV cDNA kit (Cowin Biotechnology Company, Beijing, China). Transcripts were quantified by PCR analysis performed with a CFX 96 Touch (Bio-Rad, Hercules, CA, USA) and SYBR Premixed EX Taq (Takara, Otsu, Japan). PCR was performed under the following conditions: 95 °C for 2 min, followed by 40 cycles, 94 °C for 15 s, 60 °C for 25 s, and 72 °C for 10 s. All results were normalized to the level of 18S RNA, and the relative mRNA transcription levels were estimated by 2^−ΔΔCT. The number of animal samples in each group was five, and all samples were run in triplicate, and their average values were calculated. The mouse primers of Wnt10b (NM_011718.2), Wnt5a (NM_001256224.2), and 18S RNA (NR_003278.3) were synthesized by Sangon Biotech Co., Ltd. (Shanghai, China), and their sequences are as follows: Wnt10b-sense: 5′-[…]-3′; antisense: 5′-[…]-3′. Wnt5a-sense: 5′-[…]-3′; antisense: 5′-[…]-3′. 18S-sense: 5′-[…]-3; antisense: 5′-[…]-3′.
After extracting total RNA (5 µg) from cerebral cortex samples, mRNA was purified using Dynabeads Oligo(dT) (Thermo Fisher, Waltham, MA, USA), involving two purification steps. […]

O=C(SCCCCCCSCCCC(F)(F)F)c1cccc(O)c1O [TBG096]
expression of the Wnt gene family (Wnt10b, Wnt5a, and Wnt1): enhancing the expression
